Counter-ions that a name gives are not always drawn.
Assays:
BEAS-2B cells = assay: TNFα-stimulated BEAS-2B IL-8 release assay; type: cell-based; settings: Homo sapiens, IC50 classes, TNF-α 10 ng/ml, 18 h, read-out: TNFα-stimulated BEAS-2B IL-8 release inhibition
Method: TNFα-Stimulated BEAS-2B IL-8 Release Assay
Human bronchial epithelial cell line BEAS-2B was purchased from Sigma (St. Louis, Mo.). BEAS-2B cells were cultured in Bronchial Epithelial cell Growth Medium (BEGM), prepared by supplementing Bronchial Epithelial Basal Medium with SingleQuotes™ (Lonza, Switzerland), which contains retinoic acid, epidermal growth factor, epinephrine, transferrin, triiodothyronin, insulin, hydrocortisone, antimicrobial agents, and bovine pituitary extract. In addition, BEGM medium was supplemented with 2 mM glutamine, 100 U penicillin and 100 μg/ml streptomycin (Life Technologies), in an atmosphere of 95% air and 5% CO2 at 37° C.
BEAS-2B were seeded in 48-well plates at the density of 3×10^4 cells per well, grown to approximately 80-90% confluence. Cells were pre-incubated with p38 inhibitors for 1 hour and then stimulated with TNF-α (10 ng/ml) for 18 h at 37° C. with 5% CO2. Subsequently, supernatants were collected and used for measuring IL-8 levels using a paired antibody quantitative ELISA kit purchased from Life Technologies (detection limit: […]). All the treatments were performed at least in quadruplicate.
A concentration-response curve to each test compound was performed and the effect of compound in each experiment was expressed as a percentage inhibition of the control IL-8 release. Compound potency (IC50) was calculated by the analysis of the sigmoidal dose-response curve (variable slope) elaborated by Graph Pad PRISM4 program.

p38alpha = molecular target: T1, p38alpha (Homo sapiens, UniProt Q16539); assay: P38alpha enzyme inhibition assay (Alphascreen kinase activity assay); type: biochemical; settings: IC50 classes; 2 hours preincubation at 25° C., 250 μM ATP; read-out: p38α inhibition
T1 construct: purchased Invitrogen PV3304
Method: P38alpha Enzyme Inhibition Assay
The inhibitory activity of compounds was determined using an Alphascreen® (Perkin Elmer) based kinase activity assay. Kinase reactions consisted of 25 mM HEPES pH 7.5, 10 mM MgCl2, 100 μM Na3VO4, 2 mM DTT, 0.05 mg/ml Tween […] (Invitrogen, PV3304), 1% DMSO and 0.3 μg/ml ATF-2 fusion protein (New England Biolabs, 9224). Compounds were incubated under these conditions for 2 hours, at 25° C., prior to the initiation of the kinase activity by the addition of the 250 μM ATP. Reaction volumes were 20 uL. After 1 hr at 25° C. reactions were stopped by the adding 10 uL of 25 mM HEPES pH 7.5 containing 62.5 mM EDTA, 0.05% Triton X-100, 10% BSA and 0.83 ng/uL anti-phospho-ATF2 antibody (Abcam, ab28812). Detection was performed by measuring luminescence following the addition of Alphascreen Donor beads (Perkin Elmer 6765300) and Protein A Alphascreen Acceptor beads (Perkin Elmer 6760137), both at a final concentration of 20 ug/ml. IC50 values were determined from concentration-response curves.

[1] = system: Peripheral Blood Mononuclear Cells (PBMCs); assay: LPS-stimulated PBMC TNFα release assay; type: cell-based; settings: IC50 classes; human PBMC, LPS 10 ng/ml, 18 h; read-out: LPS-stimulated PBMC TNFα release inhibition
Method: 1-10 nM ‘+’; • <1 nM ‘++’ LPS-Stimulated PBMC TNFα Release Assay
Peripheral Blood Mononuclear Cells (PBMCs) were isolated from healthy human volunteer blood using a standard density gradient centrifugation technique. Citrated blood was placed onto Histopaque™ and centrifuged. The PBMCs were removed from the density gradient interface and washed in phosphate buffered saline (PBS). The PBMCs were suspended in RPMI 1640 medium (without serum), dispensed into a 96-well plate and incubated at 37° C. for 3 h in a humidified incubator. After incubation, the medium was replaced (with medium containing 1% foetal bovine serum) and the plate incubated at 37° C., for 1 h, in the presence of test compound or the appropriate vehicle. LPS (10 ng/ml), or an appropriate vehicle control, was then added to the cells and the plate returned to the incubator for 18 h. Cell-free supernatants were removed and assayed for TNFα levels using MSD plates on the Sector Imager 6000 (MesoScale).
A dose response curve to each test compound was performed and the effect of compound in each experiment was expressed as a percentage inhibition of the control TNFα release. Dose response curves were plotted and compound potency (IC50) was determined. Compounds were tested in at least three separate experiments.

T1 sequence (Q16539 whole entry): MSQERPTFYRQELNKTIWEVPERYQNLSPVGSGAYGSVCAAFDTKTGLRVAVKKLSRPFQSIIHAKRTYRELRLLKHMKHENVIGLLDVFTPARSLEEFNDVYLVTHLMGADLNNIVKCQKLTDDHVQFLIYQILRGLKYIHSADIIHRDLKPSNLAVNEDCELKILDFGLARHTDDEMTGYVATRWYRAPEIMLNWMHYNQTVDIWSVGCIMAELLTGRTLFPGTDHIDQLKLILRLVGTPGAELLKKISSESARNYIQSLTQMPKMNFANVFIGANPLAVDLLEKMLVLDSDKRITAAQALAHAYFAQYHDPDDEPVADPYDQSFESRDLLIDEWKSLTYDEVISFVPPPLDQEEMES

SMILES | IC50 (p38alpha) | IC50 (BEAS-2B cells) | IC50 [1]
COc1ccc(C(C)(C)C)cc1NC(=O)N[C@H]1CC[C@@H](Oc2ccc3nnc([C@@H]4CCCN4C)n3c2)c2ccccc21 [Example 1, hydrochloride salt] | < 1 nM | < 0.3 nM | < 1 nM
COc1c(CO)cc(C(C)(C)C)cc1NC(=O)N[C@H]1CC[C@@H](Oc2ccc3nnc([C@@H]4CCCN4C)n3c2)c2ccccc21 [Example 2, 1-(5-tert-Butyl-3-hydroxymethyl-2-methoxy-phenyl)-3-{(1S,4R)-4-[-3-((S)-1-methyl-pyrrolidin-2-yl)-[1,2,4]triazolo[4,3-a]pyridin-6-yloxy]-1,2,3,4-tetrahydro-naphthalen-1-yl}-urea] | < 1 nM | < 0.3 nM | < 1 nM
COc1c(NC(=O)N[C@H]2CC[C@@H](Oc3ccc4nnc([C@@H]5CCCN5C)n4c3)c3ccccc32)cc(C(C)(C)C)cc1N(CCO)S(C)(=O)=O [Example 17, N-[5-tert-Butyl-2-methoxy-3-(3-{(1S,4R)-4-[3-((S)-1-methyl-pyrrolidin-2-1)-[1,2,4]triazolo[4,3-a]pyridin-6-yloxy]-1,2,3,4-tetrahydro-naphthalen-1-yl}-ureido)-phenyl]-N-(2-hydroxy-ethyl)-methanesulfonamide formate salt] | 1 to 10 nM |  | > 5 nM
CN1CCC[C@@H]1c1nnc2ccc(O[C@@H]3CC[C@H](NC(=O)Nc4cc(NS(C)(=O)=O)cc(C(C)(C)C)c4)c4ccccc43)cn12 [Example 22] | < 1 nM |  | 1 to 5 nM
CC(C)N1CCCC[C@H]1c1nnc2ccc(O[C@@H]3CC[C@H](NC(=O)Nc4cc(NS(C)(=O)=O)cc(C(C)(C)C)c4)c4ccccc43)cn12 [Example 23] | 1 to 10 nM |  | > 5 nM
CN1CC(C)(C)C[C@H]1c1nnc2ccc(O[C@@H]3CC[C@H](NC(=O)Nc4cc(NS(C)(=O)=O)cc(C(C)(C)C)c4)c4ccccc43)cn12 [Example 26, N-[3-tert-Butyl-5-(3-{(1S,4R)-4-[3-((S)-1,4,4-trimethyl-pyrrolidin-2-yl)-[1,2,4]triazolo[4,3-a]pyridin-6-yloxy]-1,2,3,4-tetrahydro-naphthalenyl}-ureido)-phenyl]-methanesulfonamide] | 1 to 10 nM |  | 1 to 5 nM
CC(C)N1CCC[C@@]1(C)c1nnc2ccc(O[C@@H]3CC[C@H](NC(=O)Nc4cc(NS(C)(=O)=O)cc(C(C)(C)C)c4)c4ccccc43)cn12 [Example 28, N-[3-tert-Butyl-5-(3-{(1S,4R)-4-[3-((S)-1-isopropyl-2-methyl-pyrrolidin-2-yl)-[1,2,4]triazolo[4,3-a]pyridin-6-yloxy]-1,2,3,4-tetrahydro-naphthalen-1-yl}-ureido)-phenyl]-methanesulfonamide] | < 1 nM |  | 1 to 5 nM
CC(C)(C)c1cc(NC(=O)N[C@H]2CC[C@@H](Oc3ccc4nnc([C@]5(C)CCCN5)n4c3)c3ccccc32)cc(NS(C)(=O)=O)c1 [Example 29, N-[3-tert-Butyl-5-(3-{(1S,4R)-4-[3-((S)-2-methyl-pyrrolidin-2-yl)-[1,2,4]triazolo[4,3-a]pyridin-6-yloxy]-1,2,3,4-tetrahydro-naphthalen-1-yl}-ureido)-phenyl]-methanesulfonamide] | < 1 nM |  | 1 to 5 nM

Second part, led by results:

IC50 (p38alpha) | SMILES | IC50 (BEAS-2B cells) | IC50 [1]
1 to 10 nM | CN1CCC[C@@H](c2nnc3ccc(O[C@@H]4CC[C@H](NC(=O)Nc5cc(NS(C)(=O)=O)cc(C(C)(C)C)c5)c5ccccc54)cn23)C1 [Example 30, N-[3-tert-Butyl-5-(3-{(1S,4R)-4-[3-((R)-1-methyl-piperidin-3-yl)-[1,2,4]triazolo[4,3-a]pyridin-6-yloxy]-1,2,3,4-tetrahydro-naphthalen-1-yl}-ureido)-phenyl]-methanesulfonamide] |  | > 5 nM
< 1 nM | CC(C)(C)c1cc(NC(=O)N[C@H]2CC[C@@H](Oc3ccc4nnc([C@]5(C)CCCN5CCO)n4c3)c3ccccc32)cc(NS(C)(=O)=O)c1 [Example 32, N-{3-tert-Butyl-5-[3-((1S,4R)-4-{3-[(S)-1-(2-hydroxy-ethyl)-2-methyl-pyrrolidin-2-yl]-[1,2,4]triazolo[4,3-a]pyridin-6-yloxy}-1,2,3,4-tetrahydro-naphthalen-1-yl)-ureido]-phenyl}-methanesulfonamide] |  | 1 to 5 nM
< 1 nM | CN(C)C(C)(C)c1nnc2ccc(O[C@@H]3CC[C@H](NC(=O)Nc4cc(N)cc(C(C)(C)C)c4)c4ccccc43)cn12 [Example 34] |  | < 1 nM
< 1 nM | COC(=O)c1cc(NC(=O)N[C@H]2CC[C@@H](Oc3ccc4nnc([C@@H]5CCCN5C)n4c3)c3ccccc32)cc(C(C)(C)C)c1 [Example 40, 3-tert-Butyl-5-(3-{(1S,4R)-4-[3((S)-1-methyl-pyrrolidin-2-yl)-[1,2,4]triazolo[4,3-a]pyridin-6-yloxy]-1,2,3,4-tetrahydro-naphthalen-1-yl}-ureido)-benzoic acid methyl ester] |  | 1 to 5 nM
1 to 10 nM | COC(=O)c1cc(NC(=O)N[C@H]2CC[C@@H](Oc3ccc4nnc([C@]5(C)CCCN5C)n4c3)c3ccccc32)cc(C(C)(C)C)c1 [Example 41, 3-tert-Butyl-5-(3-{(1S,4R)-4-[3-((S)-1,2-dimethyl-pyrrolidin-2-yl)-[1,2,4]triazolo[4,3-a]pyridin-6-yloxy]-1,2,3,4-tetrahydro-naphthalen-1-yl}-ureido)-benzoic acid methyl ester] | < 0.3 nM | 
< 1 nM | CN1CCC[C@@]1(C)c1nnc2ccc(O[C@@H]3CC[C@H](NC(=O)Nc4cc(N5CCOCC5)cc(C(C)(C)C)c4)c4ccccc43)cn12 [Example 48, 1-(3-tert-Butyl-5-morpholin-4-yl-phenyl)-3-{(1S,4R)-4-[3-((S)-1,2-dimethyl-pyrrolidin-2-yl)-[1,2,4]triazolo[4,3-a]pyridin-6-yloxy]-1,2,3,4-tetrahydro-naphthalen-1-yl}-urea] |  | < 1 nM
< 1 nM | CN1CCC[C@H]1c1nnc2ccc(O[C@@H]3CC[C@H](NC(=O)Nc4cc(C(=O)NCCO)cc(C(C)(C)C)c4)c4ccccc43)cn12 [Example 50, 3-tert-Butyl-N-(2-hydroxy-ethyl)-5-(3-{(1S,4R)-4-[3-((S)-1-methyl-pyrrolidin-2-yl)-[1,2,4]triazolo[4,3-a]pyridin-6-yloxy]-1,2,3,4-tetrahydro-naphthalen-1-yl}-ureido)-benzamide] |  | > 5 nM
< 1 nM | CN1CCC[C@H]1c1nnc2ccc(O[C@@H]3CC[C@H](NC(=O)Nc4cc(C(N)=O)cc(C(C)(C)C)c4)c4ccccc43)cn12 [Example 52, 3-tert-Butyl-5-(3-{(1S,4R)-4-[3-((S)-1-methyl-pyrrolidin-2-yl)-[1,2,4]triazolo[4,3-a]pyridin-6-yloxy]-1,2,3,4-tetrahydro-naphthalen-1-yl}-ureido)-benzamide] |  | 1 to 5 nM
1 to 10 nM | COc1c(NC(=O)N[C@H]2CC[C@@H](Oc3ccc4nnc(N5CCCCC5)n4c3)c3ccccc32)cc(C(C)(C)C)cc1N(CCN(C)C)S(C)(=O)=O [Example 60, N-(5-tert-Butyl-2-methoxy-3-{3-[(1S,4R)-4-(3-piperidin-1-yl-[1,2,4]triazolo[4,3,a]pyridin-6-yloxy)-1,2,3,4-tetrahydro-naphthalen-1-yl]-ureido}-phenyl-N-(2-dimethylamino-ethyl)-methanesulfonamide formate salt] |  | > 5 nM

From US10100050B2 (CHIESI FARMACEUTICI S.P.A., priority 2015, dated 2018)
